Experimental data reported in ChEMBL document CHEMBL6177949, “Exploiting Solvent Exposed Salt-Bridge Interactions for the Discovery of Potent Inhibitors of SOS1 Using Free-Energy Perturbation Simulations” (ACS Med Chem Lett, 2025).
≈ marks a conversion by molar mass, not a printed value.

Key:
NCI-H358 = test: cells; conditions: Homo sapiens
Description: Antiproliferative activity against human NCI-H358 cells assessed as reduction in cell viability incubated for 10 days with media refreshed for every 5 days by celltiter-glo assay

[1] = molecular target: Son of sevenless homolog 1 (Homo sapiens, UniProt Q07889, G12C); test: Binding affinity to recombinant human His10-tagged SOS1 (564 to 1049 residues) assessed as inhibition of GST-tagged human KRAS G12C mutant (1 to 169 residues) interaction with SOS1 preincubated for 15 mins followed by KRAS addition and measured after 2 hrs by FRET assay
[2] = Intrinsic clearance in human liver microsomes at 1 uM measured after 0.5 to 30 mins in presence of NADPH by LC-MS/MS analysis; assay type: ADME, Microsome; conditions: time 0.5-30 min, read-out: CLH
[3] = Volume of distribution at steady state in BALB/c mouse at 1 mg/kg, iv administered as bolus dose by LC-MS/MS analysis; assay type: ADME, organism-based; conditions: in vivo, read-out: Vdss
[4] = Intrinsic clearance in mouse liver microsomes at 1 uM measured after 0.5 to 30 mins in presence of NADPH by LC-MS/MS analysis; assay type: ADME, Microsome; conditions: time 0.5-30 min, read-out: CLH
[5] = Half life in BALB/c mouse at 1 mg/kg, iv administered as bolus dose by LC-MS/MS analysis; assay type: ADME, organism-based; conditions: in vivo
[6] = Oral bioavailability in BALB/c mouse at 5 mg/kg administered via gavage by LC-MS/MS analysis; assay type: ADME, organism-based; conditions: in vivo
[7] = Unbound clearance in BALB/c mouse at 5 mg/kg, po via gavage or 1 mg/kg, iv administered as bolus dose by LC-MS/MS analysis; assay type: ADME, organism-based; conditions: in vivo
[8] = Kinetic solubility of the compound in pH 7.4 phosphate buffered saline at 300 uM measured after 2 hrs by LC-MS/MS analysis; assay type: physicochemical; conditions: read-out: Kinetic_solubility
[9] = Lipophilicity, log D of the compound in octanol/phosphate buffer at pH 7.4 measured after 2 hrs by LC-MS/MS based shake flask method; assay type: physicochemical
[10] = Apparent permeability across apical to basolateral side in MDCKII-MDR1 cells at 10 uM measured after 60 mins by LC-MS/MS analysis; assay type: ADME, cell-based, Canis lupus familiaris; conditions: dog, MDCK-MDR1
[11] = molecular target: Voltage-gated inwardly rectifying potassium channel KCNH2 (Homo sapiens, UniProt Q12809); test: Inhibition of human ERG stably transfected in HEK293 cells by manual patch-clamp assay; assay type: toxicity, cell-based
[12] = Dissociation constant, pKa of compound at 33 uM by UV-vis spectroscopy; assay type: physicochemical

Sequence of Voltage-gated inwardly rectifying potassium channel KCNH2 (Q12809 whole entry): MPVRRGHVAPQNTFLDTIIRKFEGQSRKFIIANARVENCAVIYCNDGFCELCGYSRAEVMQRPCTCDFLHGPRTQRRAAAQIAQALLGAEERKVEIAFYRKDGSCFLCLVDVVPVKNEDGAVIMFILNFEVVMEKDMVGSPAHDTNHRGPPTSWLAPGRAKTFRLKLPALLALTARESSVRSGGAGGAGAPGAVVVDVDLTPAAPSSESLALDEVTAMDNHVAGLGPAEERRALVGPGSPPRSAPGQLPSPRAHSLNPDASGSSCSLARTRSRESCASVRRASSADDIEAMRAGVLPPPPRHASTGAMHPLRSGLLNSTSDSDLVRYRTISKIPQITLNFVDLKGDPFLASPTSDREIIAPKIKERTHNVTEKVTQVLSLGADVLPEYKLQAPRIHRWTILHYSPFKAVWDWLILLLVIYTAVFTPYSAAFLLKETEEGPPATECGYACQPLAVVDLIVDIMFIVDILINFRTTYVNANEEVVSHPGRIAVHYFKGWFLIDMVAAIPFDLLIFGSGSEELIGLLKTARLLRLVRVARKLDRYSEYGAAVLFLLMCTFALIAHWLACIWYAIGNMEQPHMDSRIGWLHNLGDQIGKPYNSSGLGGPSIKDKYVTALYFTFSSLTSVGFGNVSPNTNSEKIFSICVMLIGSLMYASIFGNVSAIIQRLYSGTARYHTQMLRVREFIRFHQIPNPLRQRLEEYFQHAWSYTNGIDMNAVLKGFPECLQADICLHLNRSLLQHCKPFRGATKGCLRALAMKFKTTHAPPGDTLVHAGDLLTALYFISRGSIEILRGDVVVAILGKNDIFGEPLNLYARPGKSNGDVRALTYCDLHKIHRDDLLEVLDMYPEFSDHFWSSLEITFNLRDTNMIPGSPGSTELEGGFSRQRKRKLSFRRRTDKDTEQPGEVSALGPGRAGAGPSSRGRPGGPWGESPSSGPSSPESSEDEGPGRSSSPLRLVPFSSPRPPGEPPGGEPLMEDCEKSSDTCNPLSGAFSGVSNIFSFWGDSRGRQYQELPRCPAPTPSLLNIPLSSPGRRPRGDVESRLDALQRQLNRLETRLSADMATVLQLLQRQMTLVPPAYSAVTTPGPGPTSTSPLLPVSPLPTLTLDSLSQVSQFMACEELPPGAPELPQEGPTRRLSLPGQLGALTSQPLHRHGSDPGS
Sequence of Son of sevenless homolog 1 (Q07889 whole entry, looked up, stated change not applied, the tested form may be a part): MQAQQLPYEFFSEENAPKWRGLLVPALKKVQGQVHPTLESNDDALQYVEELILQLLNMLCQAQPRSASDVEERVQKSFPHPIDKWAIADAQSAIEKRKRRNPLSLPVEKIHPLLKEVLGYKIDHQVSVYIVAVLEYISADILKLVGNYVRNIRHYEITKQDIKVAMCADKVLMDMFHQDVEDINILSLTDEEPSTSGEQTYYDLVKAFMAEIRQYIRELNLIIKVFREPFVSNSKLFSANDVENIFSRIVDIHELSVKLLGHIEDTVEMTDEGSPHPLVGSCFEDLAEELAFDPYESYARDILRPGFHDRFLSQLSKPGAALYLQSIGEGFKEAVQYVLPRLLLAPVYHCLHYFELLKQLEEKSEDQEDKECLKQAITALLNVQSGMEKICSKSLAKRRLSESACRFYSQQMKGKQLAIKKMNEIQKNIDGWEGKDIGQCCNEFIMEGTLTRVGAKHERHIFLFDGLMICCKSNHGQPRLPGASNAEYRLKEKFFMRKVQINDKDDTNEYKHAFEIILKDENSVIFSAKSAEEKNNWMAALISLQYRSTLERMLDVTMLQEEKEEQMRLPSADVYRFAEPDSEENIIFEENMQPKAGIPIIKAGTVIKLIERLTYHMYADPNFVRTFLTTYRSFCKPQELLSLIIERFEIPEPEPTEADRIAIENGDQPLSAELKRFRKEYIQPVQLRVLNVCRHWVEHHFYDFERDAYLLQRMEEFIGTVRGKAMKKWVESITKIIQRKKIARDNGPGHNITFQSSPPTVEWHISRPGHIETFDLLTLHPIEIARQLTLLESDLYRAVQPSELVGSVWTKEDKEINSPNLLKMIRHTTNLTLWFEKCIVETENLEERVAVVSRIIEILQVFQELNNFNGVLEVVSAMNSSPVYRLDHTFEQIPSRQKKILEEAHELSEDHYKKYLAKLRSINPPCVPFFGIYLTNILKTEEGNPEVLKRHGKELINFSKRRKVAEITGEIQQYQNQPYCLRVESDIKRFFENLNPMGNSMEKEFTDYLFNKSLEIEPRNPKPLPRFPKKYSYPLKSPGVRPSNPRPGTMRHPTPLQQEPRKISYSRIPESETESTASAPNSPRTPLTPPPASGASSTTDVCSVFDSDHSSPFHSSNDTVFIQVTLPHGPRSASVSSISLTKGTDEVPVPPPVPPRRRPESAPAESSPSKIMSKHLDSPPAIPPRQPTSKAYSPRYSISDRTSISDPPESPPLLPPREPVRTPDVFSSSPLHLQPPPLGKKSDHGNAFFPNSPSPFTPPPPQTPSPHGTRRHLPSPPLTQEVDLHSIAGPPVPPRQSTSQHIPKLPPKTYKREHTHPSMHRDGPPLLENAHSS

pKa at 33 µM [12]	Structure (SMILES)	IC50 (NCI-H358)	CLint scaled at 1 µM [2]	CLint scaled at 1 µM [4]	logD at 2 h [9]	Papp A→B at 1 h, 10 µM [10]	further results
–	COc1cc2nc(C)nc(N[C@H](C)c3cc(N)cc(C(F)(F)F)c3)c2cc1O[C@H]1CCOC1	32 nM	–	–	–	–	–
–	Oc1cc(-c2ncc3c(N4C[C@H]5CC[C@@H](C4)N5)nc(OCC45CCCN4CCC5)nc3c2F)c2ccccc2c1	–	–	–	–	–	IC50 [1]: < 2 nM
–	C[C@@H](Nc1nc2c(c3cc(=O)n(C4CC4)cc13)CC(N1CCC1)CC2)c1cccc(C(F)F)c1F (some centres undefined)	19 nM	9 mL/min/kg	49 mL/min/kg	2.6	0.3 ×10⁻⁶ cm/s	Vd [3]: 4.1 L/kg; half-life [5]: 1.1 h; bioavailability [6]: 2%; CL free [7]: 353 mL/min/kg; solubility kinetic at 2 h, 300 µM [8]: 226 µM (≈ 109 µg/mL); IC50 [11]: 1100 nM
9.3	C[C@@H](Nc1nc2c(c3cc(=O)n(C4CCOCC4)cc13)CC(N1CCC1)CC2)c1cccc(C(F)F)c1F (some centres undefined)	–	–	–	–	–	–
7.8	COC1CN(C2CCc3nc(N[C@H](C)c4cccc(C(F)F)c4F)c4cn(C5CCOCC5)c(=O)cc4c3C2)C1 (some centres undefined)	–	–	–	–	–	–
–	Cc1c([C@@H](C)Nc2nc3c(c(=O)n2C)CNCC3)cccc1C(F)(F)F	–	–	–	–	3.2 ×10⁻⁶ cm/s	–
6.1	C[C@@H](Nc1nc2c(c3cc(=O)n(C4CCOCC4)cc13)CC(N1CC(F)(F)C1)CC2)c1cccc(C(F)F)c1F (some centres undefined)	–	–	–	–	–	–
8.8	Cc1c([C@@H](C)Nc2nc3c(c4cc(=O)n(C5CCOCC5)cc24)CNCC3)cccc1C(F)(F)F	–	11 mL/min/kg	46 mL/min/kg	2.9	0.2 ×10⁻⁶ cm/s	–
–	C[C@@H](Nc1nc2c(c3cc(=O)n(C4CC4)cc13)CC(N1CC[C@@H](F)C1)CC2)c1cccc(C(F)F)c1F (some centres undefined)	32 nM	56 mL/min/kg	143 mL/min/kg	3.7	0.2 ×10⁻⁶ cm/s	Vd [3]: 4.6 L/kg; half-life [5]: 4 h; bioavailability [6]: 2%; CL free [7]: 816 mL/min/kg; solubility kinetic at 2 h, 300 µM [8]: 90 µM (≈ 46.3 µg/mL); IC50 [11]: 1100 nM
–	Cc1c(C#N)cccc1[C@@H](C)Nc1nnc(C)c2cnc(N3CCOCC3)cc12 [MRTX-0902]	22 nM	–	–	–	–	–
